Reference: US11564394B2, “Distorted gold (I)-phosphine complexes and methods for use as antifungal agents” (University of Kentucky Research Foundation, priority 2019, dated 2023)
≈ marks a conversion by molar mass, not a printed value. Where two headings read alike, the source gives them in different places.

Assays:
[1] = tested on: C. albicans ATCC 10231(R) (strain B); type: cell-based, Candida albicans
[2] = tested on: C. albicans ATCC MYA-1237(R) (strain C); type: cell-based, Candida albicans; conditions: strain C = C. albicans ATCC MYA-1237(R); MIC-0; 48 h; listed as printed beside letter D
[3] = tested on: C. albicans ATCC MYA-2310(S) (strain D); assay: MIC determination (broth microdilution); type: cell-based, Candida albicans; conditions: strain D = C. albicans ATCC MYA-2310(S); MIC-0; 48 h; listed as printed beside letter E
[4] = tested on: C. albicans ATCC MYA-2876(S) (strain E); assay: MIC determination (broth microdilution); type: cell-based, Candida albicans; conditions: strain E = C. albicans ATCC MYA-2876(S); MIC-0; 48 h; listed as printed beside letter F
[5] = tested on: C. albicans ATCC 64124(R) (strain F); type: cell-based, Candida albicans; conditions: strain F = C. albicans ATCC 64124(R); MIC-0; 48 h; listed as printed beside letter G
[6] = tested on: C. albicans ATCC 90819(R) (strain G); type: cell-based, Candida albicans; conditions: strain G = C. albicans ATCC 90819(R); MIC-0; 48 h; listed as printed without letter, below G
[7] = tested on: C. krusei ATCC 6258 (strain I); assay: MIC determination (broth microdilution); type: cell-based; conditions: strain I = C. krusei ATCC 6258; MIC-0; 48 h; listed as split over r16 and r17 (r17 printed beside letter J)
[8] = tested on: C. neoformans CN2 (strain O); assay: MIC determination (broth microdilution); type: cell-based, Cryptococcus neoformans; conditions: MIC-0, 72 h at 35° C.
[9] = tested on: C. neoformans CN3 (strain P); assay: MIC determination (broth microdilution); type: cell-based, Cryptococcus neoformans; conditions: MIC-0, 72 h at 35° C.
[10] = tested on: A. flavus ATCC MYA-3631 (strain S); assay: MIC determination (broth microdilution); type: cell-based, Aspergillus flavus; conditions: strain S = A. flavus ATCC MYA-3631; MIC-0; 72 h at 35° C.
[11] = tested on: C. auris AR Bank # 0383 (strain III); assay: MIC determination (broth microdilution); type: cell-based, Candida auris; conditions: strain III = C. auris AR Bank # 0383; MIC-0; 48 h (CAS read at 24 h)
[12] = tested on: C. auris AR Bank # 0385 (strain IV); assay: MIC determination (broth microdilution); type: cell-based, Candida auris; conditions: strain IV = C. auris AR Bank # 0385; MIC-0; 48 h (CAS read at 24 h)
[13] = tested on: C. albicans ATCC 10231 (strain B) biofilm; assay: Prevention of biofilm formation (XTT); type: cell-based, Candida albicans; conditions: treated at 0 h, 90% decrease in metabolic activity (XTT)
[14] = tested on: C. glabrata ATCC 2001 (strain H) biofilm; assay: Prevention of biofilm formation (XTT); type: cell-based, Candida glabrata; conditions: treated at 0 h
[15] = tested on: C. auris AR Bank # 0384 (strain K) biofilm; type: cell-based, Candida auris; conditions: treated at 0 h, XTT
[16] = tested on: C. auris AR Bank # 0390 (strain L) biofilm; type: cell-based, Candida auris; conditions: treated at 0 h, XTT
[17] = tested on: C. albicans ATCC 10231 (strain B) pre-formed biofilm; assay: Disruption of pre-formed biofilm (XTT); type: cell-based, Candida albicans; conditions: for Pre-formed biofilm SMIC90: biofilm treated at 24 h, XTT
[18] = tested on: C. auris AR Bank # 0384 (strain K) pre-formed biofilm; type: cell-based, Candida auris; conditions: biofilm treated at 24 h, XTT
A549 = assay: Mammalian cytotoxicity assay (resazurin cell viability); type: cell-based; conditions: A549 (human lung carcinoma); read-out: IC50 for mammalian cell lines
From the text: (§1) For cytotoxicity assays, the human embryonic kidney cell line (HEK-293) was purchased from the ATCC. The human bronchial epithelial cell line (BEAS-2B), the human lung carcinoma cell line (A549), and the mouse macrophage cell line (J774A.1) were generous gifts from Prof. David K. Orren (University of Kentucky, Lexington, Ky.), Prof. Markos Leggas (University of Kentucky, Lexington, Ky.), and Prof. David J. Feola (University of Kentucky, Lexington, Ky.), respectively. A549, HEK-293, and BEAS-2B cells were cultured in Dulbecco's Modified Eagle's Medium (DMEM, catalog #VWRL0100, VWR, Chicago, Ill.) supplemented with 10% fetal bovine serum (FBS; from ATCC) and 1% penicillin/streptomycin (from ATCC) at 37° C. with 5% CO2. The J774A.1 cells were cultured in DMEM (catalog #30-2002, ATCC, Manassas, Va.), which was also supplemented with FBS and antibiotics and grown at 37° C. with 5% CO2.
(§2) To examine whether the compounds are safe for human cells, cytotoxicity assays were done against four mammalian cell lines: HEK-293, A549, BEAS-2B, and J774A.1 cells. […] HEK-293 and J774A.1 cells were plated at 1×10^4 cells/mL while A549 and BEAS-2B were plated at 3×10^3 cells/mL. Compounds were tested in concentrations ranging from 0.06 to 15.6 μg/mL with final concentration of DMSO at 0.5% (FIG. 4A-D).

BEAS-2B = assay: as above; type: cell-based; conditions: BEAS-2B (human bronchial epithelial); read-out: IC50 for mammalian cell lines
From the text: as §1, §2

HEK-293 = assay: as above; type: cell-based; conditions: HEK-293 (human embryonic kidney); read-out: IC50 for mammalian cell lines
From the text: as §1, §2

J774A.1 = assay: as above; type: cell-based; conditions: J774A.1 (murine macrophage); read-out: IC50 for mammalian cell lines
From the text: as §1, §2

[19] = strain B = C. albicans ATCC 10231(R), MIC-0, 48 h, listed as split over r8 and r9 (r9 printed beside letter C)

Compound | MIC [2] [µg/mL] | MIC (in parentheses) [2] [µM] | MIC [3] [µg/mL] | MIC (in parentheses) [3] [µM] | MIC [4] [µg/mL] | MIC (in parentheses) [4] [µM] | MIC [5] [µg/mL] | MIC (in parentheses) [5] [µM] | MIC [6] [µg/mL] | MIC (in parentheses) [6] [µM] | MIC [7] [µg/mL] | MIC (in parentheses) [7] [µM] | MIC [8] [µg/mL] | MIC (in parentheses) [8] [µM] | MIC [9] [µg/mL] | MIC (in parentheses) [9] [µM] | MIC [10] [µg/mL] | MIC (in parentheses) [10] [µM] | Biofilm prevention SMIC90 [13] [µg/mL] | Biofilm prevention SMIC90 [14] [µg/mL] | also measured
C[C@@H]1[C@H](O)[C@@H](C)/C=C/C=C/C=C/C=C/C=C/C=C/C=C/[C@H](O[C@@H]2O[C@H](C)[C@@H](O)[C@H](N)[C@@H]2O)C[C@@H]2O[C@](O)(C[C@@H](O)C[C@@H](O)[C@H](O)CC[C@@H](O)C[C@@H](O)CC(=O)O[C@H]1C)C[C@H](O)[C@H]2C(=O)O [AmB, amphotericin B, reference compound] | 3.9 (≈ 4.22 µM) | 4.2 (≈ 3.88 µg/mL) | 7.8 (≈ 8.44 µM) | 8.4 (≈ 7.76 µg/mL) | 3.9 (≈ 4.22 µM) | 4.2 (≈ 3.88 µg/mL) | 3.9 (≈ 4.22 µM) | 4.2 (≈ 3.88 µg/mL) | 0.98 (≈ 1.06 µM) | 1.1 (≈ 1.02 µg/mL) | 3.9 (≈ 4.22 µM) | 4.2 (≈ 3.88 µg/mL) | 1.95 (≈ 2.11 µM) | 2.1 (≈ 1.94 µg/mL) | 0.98 (≈ 1.06 µM) | 1.1 (≈ 1.02 µg/mL) | 31.3 (≈ 33.9 µM) | 33.8 (≈ 31.2 µg/mL) | 0.98 | 0.98 | MIC [1, 19]: 1.95 µg/mL (≈ 2.11 µM); MIC (in parentheses) [1, 19]: 2.1 µM (≈ 1.94 µg/mL); MIC [11]: 1.95 µg/mL (≈ 2.11 µM); MIC (in parentheses) [11]: 2.1 µM (≈ 1.94 µg/mL); MIC [12]: 1.95 µg/mL (≈ 2.11 µM); MIC (in parentheses) [12]: 2.1 µM (≈ 1.94 µg/mL); Biofilm prevention SMIC90 [15]: 1.95 µg/mL; Biofilm prevention SMIC90 [16]: 1.95 µg/mL; SMIC90 of pre-formed biofilm relative to MIC with planktonic cells [17]: 32 fold; Pre-formed biofilm SMIC90 [17]: 31.3 µg/mL; Pre-formed biofilm SMIC90 [18]: 1.95 µg/mL
CC(=O)OC[C@H]1O[C@@H]([S-])[C@H](OC(C)=O)[C@@H](OC(C)=O)[C@@H]1OC(C)=O.CCP(CC)CC.[Au+] [Auranofin, auranofin, reference compound] | > 31.3 | > 46.1 | > 31.3 | > 46.1 | > 31.3 | > 46.1 | > 31.3 | > 46.1 | > 31.3 | > 46.1 | 31.3 | 46.1 | 7.8 | 11.5 | 3.9 | 5.7 | > 31.3 | > 46.1 | 7.8 | 31.3 | MIC [1, 19]: > 31.3 µg/mL; MIC (in parentheses) [1, 19]: > 46.1 µM; Biofilm prevention SMIC90 [15]: >31.3 µg/mL; Biofilm prevention SMIC90 [16]: >31.3 µg/mL; Pre-formed biofilm SMIC90 [17]: 7.8 µg/mL; Pre-formed biofilm SMIC90 ([17]; listed as auranofin): the same SMIC90 as compound 4; Pre-formed biofilm SMIC90 [18]: >31.3 µg/mL; IC50 (A549): 500 ± 100 nM; IC50 (BEAS-2B): 1300 ± 100 nM; IC50 (HEK-293): 3000 ± 200 nM; IC50 (J774A.1): 16200 nM
bis-[1,2-bis[(2R,5R)-2,5-dimethylfphospholano]benzene]gold(1) [Compound 6] | 0.98 | 1.2 | 0.49 | 0.6 | 0.49 | 0.6 | 0.49 | 0.6 | 0.49 | 0.6 | 0.98 | 0.6 | 0.49 | 0.6 | 0.49 | 0.6 | 7.8 | 9.2 | 0.98 | 1.95 | MIC [1]: 0.98 (1.2) μg/mL; MIC (in parentheses) [1]: 0.98 (1.2) μM; MIC [11]: 3.9 µg/mL; MIC (in parentheses) [11]: 4.6 µM; MIC [12]: 1.95 µg/mL; MIC (in parentheses) [12]: 2.3 µM; Biofilm prevention SMIC90 [15]: 3.9 µg/mL; Biofilm prevention SMIC90 [16]: 3.9 µg/mL; SMIC90 of pre-formed biofilm relative to MIC with planktonic cells [17]: 4 fold; Pre-formed biofilm SMIC90 [17]: 3.9 µg/mL; Pre-formed biofilm SMIC90 [18]: 7.8 µg/mL; IC50 (A549): 2500 ± 200 nM; IC50 (BEAS-2B): 4900 ± 300 nM; IC50 (HEK-293): 5700 ± 500 nM; IC50 (J774A.1): 1500 ± 100 nM
bis-[1,2-bis[(2S,5S)-2,5-dimethylphospholano]benzene]gold(I) [Compound 4] | 0.98 | 1.2 | 0.98 | 1.2 | 0.98 | 1.2 | 0.98 | 1.2 | 0.98 | 1.2 | 1.95 | 2.3 | 0.98 | 1.2 | 0.98 | 1.2 | 7.8 | 9.2 | 3.9 | 3.9 | MIC [1]: 1.95 (2.3) μg/mL; MIC (in parentheses) [1]: 1.95 (2.3) μM; MIC [11]: 1.95 µg/mL; MIC (in parentheses) [11]: 2.3 µM; MIC [12]: 1.95 µg/mL; MIC (in parentheses) [12]: 2.3 µM; Biofilm prevention SMIC90 [15]: 3.9 µg/mL; Biofilm prevention SMIC90 [16]: 3.9 µg/mL; SMIC90 of pre-formed biofilm relative to MIC with planktonic cells [17]: 4 fold; Pre-formed biofilm SMIC90 [17]: 7.8 µg/mL; Pre-formed biofilm SMIC90 [18]: 7.8 µg/mL; IC50 (A549): 4500 nM; IC50 (BEAS-2B): 2000 ± 300 nM; IC50 (HEK-293): 1900 ± 700 nM; IC50 (J774A.1): 1500 ± 100 nM
